Experiments:
[1] = system: mouse aortic smooth muscle cell (mASMC); experiment: mASMC proliferation by MTT assay; type: cell-based; conditions: PGD2 1 and 5 μM, 24 hr, confluent, quiescent SMC
Protocol: FIG. 6 depicts the effect of PGD2 on mASMC proliferation. Confluent, quiescent SMC were treated with varies concentrations of PGD2. Cell proliferation was determined by MTT assay at 24 hr. Values are mean±S.E.M. (*: P<0.005, by One-way ANOVA and t test, n=6).
The effect of PGD2 on mASMC proliferation was determined by MTT assay.

[2] = system: MAP Kinase (MAPK), phosphorylated ERK1/2, in mASMC; experiment: MAPK activation in mASMC by Western analysis of SMC lysate; type: cell-based, mouse
Protocol: FIG. 7 depicts the effect of PGD2 on MAPK activation in mASMC. Confluent, quiescent SMC were treated with 1 μM PGD2 for varies timepoints. Cells were lysed and the lysate was analyzed for phosphorylated ERK1/2 (upper panel) and MARK (lower panel) by Western analysis, using antibodies to phosphotyrosine −ERK1/2 and ERK1/2, respectively.
The effect of PGD2 on activation of MAP Kinase (MAPK) was tested by Western analysis of SMC lysate.

SMILES: CCCCC[C@H](O)/C=C/[C@H]1C(=O)C[C@H](O)[C@@H]1C/C=C\CCCC(=O)O [PGD2, Prostaglandin D2]
- effect on mASMC proliferation [1]: significantly promote mASMC proliferation
- level of phosphorylated-MAPK1/2 over time ([2]; 1 μM PGD2, after 15 min): returned to control levels
- activation of MAP Kinase (phosphorylated-MAPK1/2, 44 and 42 kDa) ([2]; 1 μM PGD2, as early as 10 min): induction of a phosphorylated-MAPK1/2
